# Results reported in patent US12404261B2, “Compounds and compositions for treating conditions associated with cGAS” (Novartis AG, priority 2020, dated 2025).
# Target: human truncated cGAS enzyme (147-522 human cGAS) (Homo sapiens (Human), UniProt Q8N884)
# Assay: Quantification of cGAS protein inhibition (cGAMP formation measured by LC-MS/MS)
# Format: biochemical
# Conditions: reported for the potential mixture in solution of co-existing tautomers and/or racemates
# Procedure, shortened: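 Human cGAS 147-522 (30 nM) in Tris pH 7.5, NaCl, MgCl2, ZnCl2, Tween 20, started with 5 μM ISD 45 bp dsDNA, 0.5 mM GTP and 0.5 mM ATP. Incubated 1 h at room temperature, then quenched with acetonitrile/TFA. cGAMP quantified by LC-MS/MS against a labelled cGAMP internal standard; IC50 from ratio versus compound concentration.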
# Sequence of human truncated cGAS enzyme (147-522 human cGAS) (Q8N884 147-522): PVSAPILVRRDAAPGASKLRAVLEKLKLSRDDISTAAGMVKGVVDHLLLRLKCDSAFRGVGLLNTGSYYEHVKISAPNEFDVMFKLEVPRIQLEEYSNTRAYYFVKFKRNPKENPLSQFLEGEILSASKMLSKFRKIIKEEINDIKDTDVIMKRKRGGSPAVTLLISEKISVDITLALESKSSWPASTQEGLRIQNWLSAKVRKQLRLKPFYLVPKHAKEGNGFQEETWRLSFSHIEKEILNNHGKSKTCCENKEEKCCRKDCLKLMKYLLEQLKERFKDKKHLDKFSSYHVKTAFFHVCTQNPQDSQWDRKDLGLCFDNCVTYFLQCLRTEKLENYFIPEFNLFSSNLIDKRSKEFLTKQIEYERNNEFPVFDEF
row,Compound,IC50
1,"COc1cc2c(-n3ccnc3)c(-c3nnc(C(OC)C(F)F)[nH]3)n(C)c2c(F)c1Cl (centres unmarked) [Example 99, 6-chloro-2-(5-(2,2-difluoro-1-methoxyethyl)-4H-1,2,4-triazol-3-yl)-7-fluoro-3-(1H-imidazol-1-yl)-5-methoxy-1-methyl-1H-indole]",64 nM
2,"COc1cc2c(-n3ccnc3)c(-c3nnc(C(=O)N(C)C)[nH]3)n(C)c2c(F)c1F [Example 104, 5-(6,7-difluoro-3-(1H-imidazol-1-yl)-5-methoxy-1-methyl-1H-indol-2-yl)-N,N-dimethyl-4H-1,2,4-triazole-3-carboxamide]",318 nM
3,"FC(F)(F)c1nnc(-c2[nH]c3c(Cl)c(Cl)ccc3c2-n2ccnc2)[nH]1 [Example 106, 6,7-dichloro-3-(1H-imidazol-1-yl)-2-(5-(trifluoromethyl)-4H-1,2,4-triazol-3-yl)-1H-indole]",95 nM
4,"COc1cc2c(-n3ccnc3)c(-c3nnc(C(F)(F)F)[nH]3)[nH]c2cc1Cl [Example 107, 6-chloro-3-(1H-imidazol-1-yl)-5-methoxy-2-(5-(trifluoromethyl)-4H-1,2,4-triazol-3-yl)-1H-indole]",79 nM
5,"Cn1c(-c2nnc(C(F)(F)F)[nH]2)c(-n2ccnc2)c2cc(Cl)c(Cl)cc21 [Example 108, 5,6-dichloro-3-(1H-imidazol-1-yl)-1-methyl-2-(5-(trifluoromethyl)-4H-1,2,4-triazol-3-yl)-1H-indole]",282 nM
6,"N#Cc1c(Cl)ccc2c(-n3ccnc3)c(-c3nnc(C(F)(F)F)[nH]3)[nH]c12 [Example 110, 6-chloro-3-(1H-imidazol-1-yl)-2-(5-(trifluoromethyl)-4H-1,2,4-triazol-3-yl)-1H-indole-7-carbonitrile]",226 nM
7,"Cn1c(-c2nnc(C(F)(F)F)[nH]2)c(-n2ccnc2)c2ccc(Cl)c(C#N)c21 [Example 111, 6-chloro-3-(1H-imidazol-1-yl)-1-methyl-2-(5-(trifluoromethyl)-4H-1,2,4-triazol-3-yl)-1H-indole-7-carbonitrile]",201 nM
8,"FC(F)Oc1cc2c(-n3ccnc3)c(-c3nnc(C(F)(F)F)[nH]3)[nH]c2cc1Cl [Example 112, 6-chloro-5-(difluoromethoxy)-3-(1H-imidazol-1-yl)-2-(5-(trifluoromethyl)-4H-1,2,4-triazol-3-yl)-1H-indole]",659 nM
9,"COc1cc2c(-n3ccnc3)c(-c3nnc(C(F)(F)F)[nH]3)n(C)c2cc1Cl [Example 114, 6-chloro-3-(1H-imidazol-1-yl)-5-methoxy-1-methyl-2-(5-(trifluoromethyl)-4H-1,2,4-triazol-3-yl)-1H-indole]",140 nM
10,"COc1cc2c(-n3ccnc3)c(-c3nnc(C(=O)N(C)C)[nH]3)n(C)c2cc1Cl [Example 116, 5-(6-chloro-3-(1H-imidazol-1-yl)-5-methoxy-1-methyl-1H-indol-2-yl)-N,N-dimethyl-4H-1,2,4-triazole-3-carboxamide]",103 nM

# Results, then the compound that gave them:
row,IC50,Compound
1,65 nM,"COCC(c1nnc(-c2c(-n3ccnc3)c3cc(OC)c(Cl)c(F)c3n2C)[nH]1)n1ccnc1 (centres unmarked) [Example 100, 2-(5-(1-(1H-imidazol-1-yl)-2-methoxyethyl)-4H-1,2,4-triazol-3-yl)-6-chloro-7-fluoro-3-(1H-imidazol-1-yl)-5-methoxy-1-methyl-1H-indole]"
2,721 nM,"CCOc1cc2c(-n3ccnc3)c(-c3nnc(C(C)=O)[nH]3)n(C)c2c(F)c1Cl [Example 101, 1-(5-(6-chloro-5-ethoxy-7-fluoro-3-(1H-imidazol-1-yl)-1-methyl-1H-indol-2-yl)-4H-1,2,4-triazol-3-yl)ethan-1-one]"
3,108 nM,"COc1cc2c(-n3ccnc3)c(-c3nnc(C(C)=O)[nH]3)n(C)c2c(F)c1Cl [Example 102, 1-(5-(6-chloro-7-fluoro-3-(1H-imidazol-1-yl)-5-methoxy-1-methyl-1H-indol-2-yl)-4H-1,2,4-triazol-3-yl)ethan-1-one]"
4,171 nM,"COc1cc2c(-n3ccnc3)c(-c3nnc(C(=O)N(C)C)[nH]3)n(C)c2c(C#N)c1Cl [Example 103, 5-(6-chloro-7-cyano-3-(1H-imidazol-1-yl)-5-methoxy-1-methyl-1H-indol-2-yl)-N,N-dimethyl-4H-1,2,4-triazole-3-carboxamide]"
5,564 nM,"FC(F)(F)c1nnc(-c2[nH]c3cc(Cl)c(Cl)cc3c2-n2ccnc2)[nH]1 [Example 105, 5,6-dichloro-3-(1H-imidazol-1-yl)-2-(5-(trifluoromethyl)-4H-1,2,4-triazol-3-yl)-1H-indole]"

# Same assay, conditions: reported for the potential mixture of co-existing tautomers and/or racemates
row,Compound,IC50
1,"COc1cc2c(-c3cn[nH]c3)c(-c3nnc(C(C)C#N)[nH]3)n(C)c2c(F)c1Cl (centres unmarked) [Example 82, 2-(5-(6-Chloro-7-fluoro-5-methoxy-1-methyl-3-(1H-pyrazol-4-yl)-1H-indol-2-yl)-4H-1,2,4-triazol-3-yl)propanenitrile]",30 nM
2,"COC[C@H](O)c1nnc(-c2c(-n3ccnc3)c3cc(OC)c(Cl)c(F)c3n2C)[nH]1 [Example 84, (R)-1-(5-(6-chloro-7-fluoro-3-(1H-imidazol-1-yl)-5-methoxy-1-methyl-1H-indol-2-yl)-4H-1,2,4-triazol-3-yl)-2-methoxyethan-1-ol]",63 nM
3,"COc1cc2c(-n3ccnc3)c(-c3nnc(OC(C)C)[nH]3)n(C)c2c(F)c1Cl [Example 85, 6-chloro-7-fluoro-3-(1H-imidazol-1-yl)-2-(5-isopropoxy-4H-1,2,4-triazol-3-yl)-5-methoxy-1-methyl-1H-indole]",91 nM
4,"COc1cc2c(-n3ccnc3)c(-c3nnc(N(C)CCO)[nH]3)n(C)c2c(F)c1Cl [Example 90, 2-((5-(6-chloro-7-fluoro-3-(1H-imidazol-1-yl)-5-methoxy-1-methyl-1H-indol-2-yl)-4H-1,2,4-triazol-3-yl)(methyl)amino)ethan-1-ol]",93 nM
5,"COc1cc2c(-n3ccnc3)c(-c3nnc(N4CC[C@@H](O)C4)[nH]3)n(C)c2c(F)c1Cl [Example 91, (R)-1-(5-(6-chloro-7-fluoro-3-(1H-imidazol-1-yl)-5-methoxy-1-methyl-1H-indol-2-yl)-4H-1,2,4-triazol-3-yl)pyrrolidin-3-ol]",109 nM
6,"COc1cc2c(-n3ccnc3)c(-c3n[nH]c(C(CO)OC)n3)n(C)c2c(F)c1Cl (centres unmarked) [Example 93, 2-(3-(6-chloro-7-fluoro-3-(1H-imidazol-1-yl)-5-methoxy-1-methyl-1H-indol-2-yl)-1H-1,2,4-triazol-5-yl)-2-methoxyethan-1-ol]",60 nM
7,"COc1cc2c(-n3ccnc3)c(-c3nnc(C(F)(F)CO)[nH]3)n(C)c2c(F)c1Cl [Example 95, 2-(5-(6-chloro-7-fluoro-3-(1H-imidazol-1-yl)-5-methoxy-1-methyl-1H-indol-2-yl)-4H-1,2,4-triazol-3-yl)-2,2-difluoroethan-1-ol]",56 nM
8,"COc1cc2c(-n3ccnc3)c(-c3nnc(C(O)C(F)(F)F)[nH]3)n(C)c2c(F)c1Cl (centres unmarked) [Example 98, 1-(5-(6-chloro-7-fluoro-3-(1H-imidazol-1-yl)-5-methoxy-1-methyl-1H-indol-2-yl)-4H-1,2,4-triazol-3-yl)-2,2,2-trifluoroethan-1-ol]",37 nM

# Further lines, results first:
row,IC50,Compound
1,78 nM,"COC[C@@H](O)c1nnc(-c2c(-n3ccnc3)c3cc(OC)c(Cl)c(F)c3n2C)[nH]1 [Example 83, (S)-1-(5-(6-chloro-7-fluoro-3-(1H-imidazol-1-yl)-5-methoxy-1-methyl-1H-indol-2-yl)-4H-1,2,4-triazol-3-yl)-2-methoxyethan-1-ol]"
2,63 nM,"COCC(O)c1nnc(-c2c(-n3ccnc3)c3cc(OC)c(Cl)c(F)c3n2C)[nH]1 (centres unmarked) [Example 83a, 1-(5-(6-chloro-7-fluoro-3-(1H-imidazol-1-yl)-5-methoxy-1-methyl-1H-indol-2-yl)-4H-1,2,4-triazol-3-yl)-2-methoxyethan-1-ol]"
3,264 nM,"COc1cc2c(-n3ccnc3)c(-c3nnc(F)[nH]3)n(C)c2c(F)c1Cl [Example 86, 6-chloro-7-fluoro-2-(5-fluoro-4H-1,2,4-triazol-3-yl)-3-(1H-imidazol-1-yl)-5-methoxy-1-methyl-1H-indole]"
4,43 nM,"COc1cc2c(-n3ccnc3)c(-c3nnc(F)[nH]3)[nH]c2c(F)c1Cl [Example 87, 6-chloro-7-fluoro-2-(5-fluoro-4H-1,2,4-triazol-3-yl)-3-(1H-imidazol-1-yl)-5-methoxy-1H-indole]"
5,75 nM,"COCC(=O)c1nnc(-c2c(-n3ccnc3)c3cc(OC)c(Cl)c(F)c3n2C)[nH]1 [Example 88, 1-(5-(6-chloro-7-fluoro-3-(1H-imidazol-1-yl)-5-methoxy-1-methyl-1H-indol-2-yl)-4H-1,2,4-triazol-3-yl)-2-methoxyethan-1-one]"
6,40 nM,"COCC(F)(F)c1nnc(-c2c(-n3ccnc3)c3cc(OC)c(Cl)c(F)c3n2C)[nH]1 [Example 89, 6-chloro-2-(5-(1,1-difluoro-2-methoxyethyl)-4H-1,2,4-triazol-3-yl)-7-fluoro-3-(1H-imidazol-1-yl)-5-methoxy-1-methyl-1H-indole]"
7,81 nM,"COc1cc2c(-n3ccnc3)c(-c3nnc(N4CC[C@H](O)C4)[nH]3)n(C)c2c(F)c1Cl [Example 92, (S)-1-(5-(6-chloro-7-fluoro-3-(1H-imidazol-1-yl)-5-methoxy-1-methyl-1H-indol-2-yl)-4H-1,2,4-triazol-3-yl)pyrrolidin-3-ol]"
8,72 nM,"COc1cc2c(-n3ccnc3)c(-c3nnc(OCCO)[nH]3)n(C)c2c(F)c1Cl [Example 94, 2-((5-(6-chloro-7-fluoro-3-(1H-imidazol-1-yl)-5-methoxy-1-methyl-1H-indol-2-yl)-4H-1,2,4-triazol-3-yl)oxy)ethan-1-ol]"
9,30 nM,"COc1cc2c(-n3ccnc3)c(-c3nnc(C(O)C(F)F)[nH]3)n(C)c2c(F)c1Cl (centres unmarked) [Example 96, 1-(5-(6-chloro-7-fluoro-3-(1H-imidazol-1-yl)-5-methoxy-1-methyl-1H-indol-2-yl)-4H-1,2,4-triazol-3-yl)-2,2-difluoroethan-1-ol]"
